How the values were obtained:
[1] = system: membrane blebbing induced by anti-APO-1; experiment: kinetics of membrane blebbing induced by anti-APO-1, in the presence of chelators; assay type: cell-based; conditions: 10 mM
Text: The CCRF-CEM.S2 subclone was obtained by cloning cells under limiting dilution conditions from the CCRF-CEM T cell line at one cell per well in 96-well microtiter plates.

[2] = system: DNA fragmentation induced by anti-APO-1; experiment: endonuclease-mediated DNA fragmentation induced by anti-APO-1, in the presence of Ca2+ channel blockers; assay type: cell-based; conditions: Ca2+ channel blocker at 50 μM
Experimental: CCRF-CEM.S2 cells (10^6 per milliliter) were incubated with MAb (1 μg/ml) in culture medium at 37° C. At various times, aliquots of 10^6 cells were removed and DNA was prepared.
SKW6.4 cells were either incubated with the isotype-matched control MAb FII20, FII23 (nonbinding MAb), or anti-APO-1 in microcultures for 24 hours before labeling with [^3 H]-thymidine for a further 4 hours. The data represent the mean of duplicate cultures with a variation of less than 5%. The cells were cultured in RPMI 1640 medium (Gibco, Grand Island, N.Y.), supplemented with 2 mM L-glutamine, streptomycin (100 μg/ml), penicillin (100 U/ml), 20 mM Hepes buffer pH 7.3, and 10% heat-inactivatedfetal bovine serum (Conco Lab-Division, Wiesbaden, FRG). For microcultures 1×10^4 cells per well were cultured in duplicates in flat bottom 96-well microtiter plates (Tecnomara, Fernwald, FRG) (200 μfinal volume per well). After 24 hours, the cells were labeled with 0.5 μCi of [^3 H]-thymidine (Amersham, Braunschweig, FRG)) for 4 hours. Before harvesting, the microcultures were examined by microscopic inspection. For DNA fragmentation 1×10^6 cells were washed with cold phosphate-buffered saline and disrupted with NTE buffer, pH 8 (100 mM NaCl, 10 mM Tris-HCl, 1 mM EDTA) containing 1% SDS and proteinase K (0.2 mg/ml). […]

| Molecule | influence on kinetics of membrane blebbing induced by anti-APO-1 (within 30 minutes) [1] | inhibition of endonuclease-mediated DNA fragmentation induced by anti-APO-1 [2] |
| --- | --- | --- |
| O=C(O)CN(CCN(CC(=O)O)CC(=O)O)CC(=O)O [EDTA] | not influenced |  |
| Furamicin |  | not inhibited |
| O=C(O)CN(CCOCCOCCN(CC(=O)O)CC(=O)O)CC(=O)O [EGTA] | not influenced |  |
| COC(=O)C1=C(C)NC(C)=C(C(=O)OC)C1c1ccccc1[N+](=O)[O-] [Nifedipin] |  | not inhibited |
